For 6 compounds, MIC results are on record in DBAASP.

≈ marks a conversion by molar mass, not a printed value.

Common to all, as to test: ≥ marks a high value that may be exact or a test limit, other limits are often not marked, values filed in µg/mL are converted to µM
For assay [1], the system named is Staphylococcus aureus CUN 3792-99.
The subject of assay [2] is Stenotrophomonas maltophilia CUN 3998-00.
The subject of assay [3] is Staphylococcus aureus ATCC 25923.
For assay [4], the system named is Staphylococcus aureus ATCC 43300.
Assay [5] concerns Pseudomonas aeruginosa CUN 4158-02.
Assay [6] has as its system Bordetella bronchiseptica CUN 11844-99.
Assay [7] concerns Escherichia coli ATCC 25922.
For assay [8], the system named is Pseudomonas aeruginosa ATCC 27853.
In assay [9] the test system is Acinetobacter baumannii ATCC 19606.
Assay [10] relates to Pseudomonas putida.
In assay [11] the test system is Candida albicans.
Assay [12] relates to Bacillus subtilis.
Assay [13] concerns Escherichia coli.
For assay [14], the system named is Streptococcus pneumoniae.
In assay [15] the test system is Serratia marcescens.
For assay [16], the system named is Cryptococcus neoformans.
The test system of assay [17] is Salmonella typhimurium.
The test system of assay [18] is Saccharomyces cerevisiae.
Assay [19] deals with Streptococcus mutans.
Assay [20] relates to Staphylococcus aureus.
For assay [21], the system named is Leuconostoc lactis.
The test system of assay [22] is Micrococcus luteus.
In assay [23] the test system is Staphylococcus aureus IFO 12732.
Assay [24] concerns Streptococcus uberis.
The test system of assay [25] is Bacillus subtilis IFO 3134.
Assay [26] concerns Pseudomonas aeruginosa IFO 12582.
Assay [27] has as its system Escherichia coli IFO 12734.
The subject of assay [28] is Pasteurella multocida.
The subject of assay [29] is Staphylococcus epidermidis.
Assay [30] has as its system Enterococcus faecalis.
The test system of assay [31] is Bacillus cereus.
Assay [32] has as its system Listeria innocua.
Assay [33] relates to Escherichia coli AS1.349.
Assay [34] relates to Klebsiella aerogenes CGMCC 1.876.
Assay [35] concerns Enterobacter cloacae CGMCC 1.58.
The subject of assay [36] is Enterococcus faecalis CGMCC 1.595.
In assay [37] the test system is Lactococcus lactis AS1.1690.
Assay [38] has as its system Staphylococcus aureus AS1.72.
In assay [39] the test system is Enterococcus faecium CGMCC 1.2334.
Assay [40] has as its system Bacillus cereus AS1.126.
For assay [41], the system named is Klebsiella pneumoniae subsp. pneumoniae CGMCC 1.176.
Assay [42] concerns Pseudomonas aeruginosa CGMCC 1.860.

Regarding `CC(C)C[C@H](NC(=O)[C@H](Cc1c[nH]c2ccccc12)NC(=O)[C@H](CC(C)C)NC(=O)[C@H](CCCCN)NC(=O)[C@H](CCC(N)=O)NC(=O)[C@H](CCCCN)NC(=O)[C@H](CS)NC(=O)[C@H](CCCCN)NC(=O)[C@H](CC(C)C)NC(=O)[C@H](CCCCN)NC(=O)[C@H](Cc1ccccc1)NC(=O)[C@H](CCCNC(=N)N)NC(=O)[C@H](CCCNC(=N)N)NC(=O)[C@H](Cc1ccccc1)NC(=O)[C@H](CCCCN)NC(=O)[C@H](CCCCN)NC(=O)[C@H](CS)NC(=O)CN)C(=O)N[C@@H](Cc1c[nH]c2ccccc12)C(=O)N[C@@H](CS)C(=O)NCC(=O)O` [GCKKFRRFKLKCKQKLWLWCG], the MIC in [1] is 12 µM (≈ 32 µg/mL); in assay [2] it was no less than 385 µM; in [3] it was 385 µM (≈ 1020 µg/mL); in [4] it was 24.1 µM (≈ 64 µg/mL); in assay [5], no less than 96.3 µM; in [6], 6.02 µM (≈ 16 µg/mL). The MIC worked out at 385 µM (≈ 1020 µg/mL) in assay [7], 96.3 µM (≈ 256 µg/mL) in assay [8] and 24.1 µM (≈ 64 µg/mL) in [9].

With `CC(C)C[C@H](NC(=O)[C@H](CC(C)C)NC(=O)[C@H](CCCN=C(N)N)NC(=O)[C@H](Cc1cnc[nH]1)NC(=O)[C@@H](NC(=O)[C@H](CCCN=C(N)N)NC(=O)CNC(=O)[C@@H](NC(=O)[C@@H]1CCCN1C(=O)[C@H](Cc1ccccc1)NC(=O)[C@H](CCC(N)=O)NC(=O)[C@H](CC(C)C)NC(=O)CNC(=O)[C@H](C)NC(=O)[C@@H](N)CCCN=C(N)N)C(C)C)C(C)C)C(=O)O` [RAGLQFPVGRVHRLL], the minimal inhibitory concentration (MIC) in assay [10] is no less than 37.2 µM; in assay [11] it was greater than 149 µM; in assay [12], no less than 37.2 µM; in assay [13], 37.2 µM (≈ 64 µg/mL); in [14], no less than 74.5 µM; in assay [15], no less than 37.2 µM. Moreover, the MIC was no less than 74.5 µM in assay [16]; 18.6 µM (≈ 32 µg/mL) in [17]; no less than 149 µM in assay [18]; no less than 37.2 µM in assay [19]; 74.5 µM (≈ 128 µg/mL) in assay [20].

For the compound `CC[C@H](C)[C@H](NC(=O)[C@H](C)NC(=O)[C@@H]1CCCN1C(=O)[C@@H](NC(=O)[C@@H](NC(=O)[C@H](Cc1cnc[nH]1)NC(=O)[C@H](C)NC(=O)[C@H](C)NC(=O)[C@@H](NC(=O)[C@H](CCCCN)NC(=O)[C@H](C)NC(=O)[C@H](CC(C)C)NC(=O)[C@@H](NC(=O)CNC(=O)[C@@H](N)Cc1ccccc1)C(C)C)C(C)C)C(C)C)C(C)C)C(=O)N[C@@H](C)C(=O)N[C@@H](CCC(=O)O)C(=O)N[C@@H](Cc1cnc[nH]1)C(=O)N[C@@H](Cc1ccccc1)C(N)=O` [FGVLAKVAAHVVPAIAEHF], the minimal inhibitory concentration (MIC) was no less than 50.6 µM in assay [21]; no less than 50.6 µM in assay [22]; no less than 64 µM in assay [23]; greater than 50.6 µM in assay [13]; no less than 50.6 µM in assay [24]; no less than 64 µM in assay [25]. The minimum inhibitory concentration (MIC) in assay [26] is no less than 64 µM; in [27] it was no less than 64 µM; in assay [28], no less than 50.6 µM; in [29], no less than 50.6 µM; in assay [30], no less than 50.6 µM; in [31] it was no less than 50.6 µM. In assay [32], this compound gave an MIC of no less than 50.6 µM.

For the compound `CC[C@H](C)[C@H](N=C(O)[C@H](C)N=C(O)[C@H](C)N=C(O)[C@@H](N=C(O)[C@@H](N=C(O)[C@H](Cc1cnc[nH]1)N=C(O)[C@H](C)N=C(O)[C@H](C)N=C(O)[C@@H](N=C(O)[C@H](CCCCN)N=C(O)[C@H](C)N=C(O)[C@H](CC(C)C)N=C(O)[C@@H](N=C(O)CN=C(O)[C@H](Cc1ccccc1)N=C(O)[C@H](CC(C)C)N=C(O)CN)C(C)C)C(C)C)C(C)C)C(C)C)C(O)=N[C@@H](C)C(O)=N[C@@H](CCC(=O)O)C(O)=N[C@@H](Cc1cnc[nH]1)C(O)=N[C@@H](Cc1ccccc1)C(=N)O` [GLFGVLAKVAAHVVAAIAEHF], the MIC was 5.66 µM (≈ 12 µg/mL) in [21]; 23.6 µM (≈ 50 µg/mL) in [22]; 4 µM (≈ 8.48 µg/mL) in [23]; greater than 47.2 µM in [13]; 23.6 µM (≈ 50 µg/mL) in [24]; 8 µM (≈ 17 µg/mL) in [25]. In addition, the MIC is no less than 64 µM in assay [26]; no less than 64 µM in assay [27]; no less than 47.2 µM in [28]; no less than 47.2 µM in assay [29]; 33.3 µM (≈ 70.7 µg/mL) in assay [20]; no less than 47.2 µM in assay [30]. For the same compound, the MIC in assay [31] and in assay [32] was no less than 47.2 µM in each case.

For the compound `NCCCC[C@H](NC(=O)CNC(=O)[C@H](CCCCN)NC(=O)[C@H](Cc1ccccc1)NC(=O)[C@H](CCCCN)NC(=O)[C@H](Cc1c[nH]c2ccccc12)NC(=O)[C@H](CCCN=C(N)N)NC(=O)[C@H](Cc1ccccc1)NC(=O)[C@H](CCCN=C(N)N)NC(=O)[C@H](CCCN=C(N)N)NC(=O)[C@H](Cc1ccc(O)cc1)NC(=O)[C@H](CCCCN)NC(=O)[C@H](CCCCN)NC(=O)[C@H](CS)NC(=O)CN)C(=O)N[C@@H](Cc1ccccc1)C(=O)N[C@@H](Cc1c[nH]c2ccccc12)C(=O)N[C@@H](Cc1ccccc1)C(=O)N[C@@H](Cc1c[nH]c2ccccc12)C(=O)NCC(=O)NCC(N)=O` [GCKKYRRFRWKFKGKFWFWGG], the MIC in assay [1] was no less than 370 µM; in assay [2] it was no less than 185 µM; in assay [3] it was 46.2 µM (≈ 128 µg/mL); in assay [4] it was 46.2 µM (≈ 128 µg/mL); in assay [5], no less than 92.4 µM; in assay [6], 11.6 µM (≈ 32 µg/mL). Besides, the MIC in assay [7] came to 46.2 µM (≈ 128 µg/mL); in assay [8], 46.2 µM (≈ 128 µg/mL); in assay [9], 23.1 µM (≈ 64 µg/mL).

With `CC[C@H](C)[C@H](N)C(=O)N[C@@H](CCCCN)C(=O)N[C@@H](CCCCN)C(=O)N[C@H](C(=O)N[C@@H](CC(C)C)C(=O)N[C@@H](CO)C(=O)N[C@@H](CCCCN)C(=O)N[C@H](C(=O)N[C@@H](CCCCN)C(=O)N[C@@H](CCCCN)C(=O)N[C@@H](CC(C)C)C(=O)N[C@@H](CC(C)C)C(N)=O)[C@@H](C)CC)[C@@H](C)CC` [IKKILSKIKKLL], the MIC turned out to be 3.12 µM (≈ 4.44 µg/mL) in [33]; 6.25 µM (≈ 8.9 µg/mL) in assay [34]; 6.25 µM (≈ 8.9 µg/mL) in assay [35]; 6.25 µM (≈ 8.9 µg/mL) in assay [36]; 3.12 µM (≈ 4.44 µg/mL) in [37]; 3.12 µM (≈ 4.44 µg/mL) in assay [38]. The MIC amounted to 6.25 µM (≈ 8.9 µg/mL) in assay [39], 3.12 µM (≈ 4.44 µg/mL) in [40], 6.25 µM (≈ 8.9 µg/mL) in [41] and 3.12 µM (≈ 4.44 µg/mL) in assay [42].

As a reminder, the MIC is the lowest concentration that inhibits growth of the organism.
